Data published in patent US20180169123A1, “COMBINATION THERAPY WITH A FLAVAGLINE AND 2-DEOXYGLUCOSE” (Ruprecht-Karls-Universitat Heidelberg, priority 2015, published 2018).

Columns and labels:
Assay type in all cases: cell-based
NCH89 = experiment: MTT cell viability assay, tumor cell line (Example 1); conditions: Homo sapiens, 48 h, relative to untreated cells, read-out: Cell viability after treatment
Description: (§1) The MTT (MethylThiazol Tetrazolium) assay was used to determine cell viability. The MTT assay is a colorimetric method for measuring the activity of cellular enzymes that reduce the tetrazolium dye, MTT, to its insoluble formazan, giving a purple color. This method was used in the present experiments to reflect the number of viable cells present and to measure cytotoxicity (loss of viable cells).
(§2) Cells were plated in flat-bottom 96-well plates at a cell number of 10,000 in 100 p of medium per well. RPMI 1640 (Roswell Park Memorial Institute, Gibco, City, State) supplemented with fetal bovine serum (10%) and penicillin/streptomycin (1%) medium was used for cell culturing and plating. After plating, cells were incubated at 37° C. in an incubator at 5% CO2 concentration for 24 hours before the beginning of treatment. After that, when cells became adherent, the medium was removed and 2-DG and rocaglamide were added to the cells at a concentration of 1 mM and 0.1 μM, respectively. After 48 hours of incubation, 20 μl of MTT reagent was added to each well. Cells were incubated for 1 hour at 37° C. before colorimetric assessment
(§3) To determine the amount of viable cells after the treatment, the absorption was measured at a wave length of 485 nm with the help of an ELISA reader device (TECAN GENios, Austria). All measurements were carried out in quadruplicate. Mean values and standard deviations were calculated from the measured values after background subtraction. As background, absorption was measured in wells containing medium alone.

GL261 = experiment: as above; conditions: Mus musculus, 48 h, relative to untreated cells, read-out: Cell viability after treatment
Description: as §1, §2, §3

H146 = experiment: as above; conditions: Homo sapiens, 48 h, relative to untreated cells, read-out: Cell viability after treatment
Description: as §1, §2, §3

NCH82 = experiment: as above; conditions: Homo sapiens, 48 h, relative to untreated cells, read-out: Cell viability after treatment
Description: as §1, §2, §3

C3 = experiment: as above; conditions: 48 h, relative to untreated cells, read-out: Cell viability after treatment
Description: as §1, §2, §3

RKO = experiment: as above; conditions: Homo sapiens, 48 h, relative to untreated cells, read-out: Cell viability after treatment
Description: as §1, §2, §3

SW480 = experiment: as above; conditions: Homo sapiens, 48 h, relative to untreated cells, read-out: Cell viability after treatment
Description: as §1, §2, §3

HCT116 = experiment: as above; conditions: Homo sapiens, 48 h, relative to untreated cells, read-out: Cell viability after treatment
Description: as §1, §2, §3

SMA560 = experiment: as above; conditions: Mus musculus, 48 h, relative to untreated cells, read-out: Cell viability after treatment
Description: as §1, §2, §3

LNT229 = experiment: as above; conditions: 48 h, relative to untreated cells, read-out: Cell viability after treatment
Description: as §1, §2, §3

HT29 = experiment: as above; conditions: Homo sapiens, 48 h, relative to untreated cells, read-out: Cell viability after treatment
Description: as §1, §2, §3

K073 = experiment: as above; conditions: 48 h, relative to untreated cells, read-out: Cell viability after treatment
Description: as §1, §2, §3

U373 = experiment: as above; conditions: Homo sapiens, U373 MG, 48 h, relative to untreated cells, read-out: Cell viability after treatment
Description: as §1, §2, §3

HT29 cells = experiment: MTT assay, IC50 of flavaglines with and without 2DG (Example 2); conditions: HT29 (FIG. 1B); flavagline 10-100 nM with 1 mM 2DG versus flavagline alone; 48 h
From the text: (§4) FIG. 1: Determination of IC50 of Rocaglamide and FL3. Treatment schemes are illustrated by different line patterns explained on the right side of each graphic. Solid lines with squares represent treatment with Rocaglamide, dotted lines with circles represent treatment with Rocaglamide and 2DG in combination, dotted lines with triangles represent treatment with FL3, and dotted lines with rhombus represent treatment with FL3 and 2DG in combination. X axis represents treatment doses of flavaglines (Rocaglamide or FL3), y axis represents relative cell viability (determined by MT assay) in %; cells not treated with flavaglines are used as a reference (corresponding to 100% viability). A. HCT116 cells. B. HT29 cells. C: normal human PBMCs.
(§5) The MTT (MethylThiazol Tetrazolium) assay was the same as in Example 1. Colorectal cancer cells (HCT116 and HT29) as well as normal human PBMCs were plated in flat-bottom 96-well plates at a cell number of 10,000 and 100,000, respectively, in 100 μl of medium per well. […] (Roswell Park Memorial Institute, Gibco, Paisley, UK) supplemented with 10% fetal bovine serum and 1% penicillin/streptomycin (Gibco, N.Y., USA) medium was used for cell culturing and plating of tumor cells. Medium for PBMCs consisting of Iscove's modified DMEM (IMDM) supplemented by 10% human AB serum, 1% L-glutamin and 0,05% gentamycin was used for plating PBMCs. After plating, rocaglamide and FL3 were applied at five increasing concentrations (10, 25, 50, 75 and 100 nM) as single substances and in combination with 1 mM 2DG. Cells were then incubated with drugs in a CO2 chamber at 5% CO2 concentration (Memmert Incubator, Büchenbach, Germany) for 48 hours. Afterwards, 20 μl of MTT reagent (Promega, Madison, Wis., USA) were added to each well. Cells were incubated for 1 hour at 37° C. as above. To determine the amount of viable cells after the treatment the absorption was measured at a wave length of 485 nm in ELISA reader device (TECAN GENios, Salzburg, Austria). All measurements were carried out in quadruplicates.
(§6) Mean values and standard deviations were calculated from the measured values after background subtraction. As background, absorption was measured in wells containing only medium.

normal human PBMCs = experiment: as above; conditions: normal human PBMCs (FIG. 1C); flavagline 10-100 nM with 1 mM 2DG versus flavagline alone; 48 h
From the text: as §4, §5, §6

HCT116 cells = experiment: as above; conditions: HCT116 (FIG. 1A); flavagline 10-100 nM with 1 mM 2DG versus flavagline alone; 48 h
From the text: as §4, §5, §6

tumor cell lines = experiment: MTT cell viability assay, number of responding cell lines (Example 1); conditions: 2-DG 1 mM alone; 48 h
Description: as §1
Cells were plated in flat-bottom 96-well plates at a cell number of 10,000 in 100 p of medium per well. RPMI 1640 (Roswell Park Memorial Institute, Gibco, City, State) supplemented with fetal bovine serum (10%) and penicillin/streptomycin (1%) medium was used for cell culturing and plating. After plating, cells were incubated at 37° C. in an incubator at 5% CO2 concentration for 24 hours before the beginning of treatment. […]
as §3, with “All measurements were carried out in quadruplicate.” left out
2-DG treatment at a concentration of 1 mM induced a significant response (reduction of viability to less than 80% of the untreated cells) in 9 out of 15 cell lines analyzed.

U138MG cells = experiment: Cell viability with 2DG alone or combined with Rocaglamide (Example 4, FIG. 3); conditions: Mus musculus, U138-MG, 4 mM 2DG alone
Description: (§7) FIG. 3: Cell viability of […] cells treated with 2DG (1 mM or 4 mM) and of PBMCs treated with 2DG (1 mM) alone or in combination with Rocaglamide (0.1 μM, 0.025 μM, 0.01 μM).
In order to evaluate the potential of Rocaglamide to reduce the dose of 2DG while at the same time maintaining its antitumoral effect, combinations of different doses of 2DG with Rocaglamide were evaluated in U138MG cells ([…]). The cell-killing effect of the combination of Rocaglamide and 2DG was then compared with the effect of 2DG alone.

in vitro = conditions: human
Description: as §7

Work on `COc1ccc([C@@]23Oc4cc(OC)cc(OC)c4[C@]2(O)[C@H](O)[C@H](C(=O)N(C)C)[C@H]3c2ccccc2)cc1` [Rocaglamide, (1R,2R,3S,3aR,8bS)-1,8b-dihydroxy-6,8-dimethoxy-3a-(4-methoxyphenyl)-N,N-dimethyl-3-phenyl-2,3-dihydro-1H-cyclopenta[b][1]benzofuran-2-carboxamide] yielded a viability at 0.1 µM (NCH89; rocaglamide 0.1 μM alone) of 56.6%, a viability at 0.1 µM (GL261; rocaglamide 0.1 μM alone) of 58.2% and a viability at 0.1 µM (H146; NCI-H146, rocaglamide 0.1 μM alone) of 47.3%. The viability at 0.1 µM (NCH82; rocaglamide 0.1 μM alone) was 63.2%, the viability at 0.1 µM (C3; rocaglamide 0.1 μM alone) was 45.3% and the viability at 0.1 µM (RKO; rocaglamide 0.1 μM alone) was 42.9%. The viability at 0.1 µM (SW480; rocaglamide 0.1 μM alone) was 59.5%, the viability at 0.1 µM (HCT116; HCT-116, rocaglamide 0.1 μM alone) was 14.8% and the viability at 0.1 µM (SMA560; SMA-560, rocaglamide 0.1 μM alone) was 92.8%. For the same compound, the viability at 0.1 µM (LNT229; rocaglamide 0.1 μM alone) was 100%, the viability at 0.1 µM (HT29; HT-29, rocaglamide 0.1 μM alone) was 52.3% and the viability at 0.1 µM (K073; rocaglamide 0.1 μM alone) was 35.9%. For the same compound, the viability at 0.1 µM (U373; rocaglamide 0.1 μM alone) was 76.4%, the “change of IC50 of the flavagline in combination with 2DG” value (“change of IC50 … with 2DG” below) (HT29 cells) was “substantially reduced” and the “change of IC50 of the flavagline in the presence of 2DG” value (normal human PBMCs) was “increased”. For the same compound, the “change of IC50 … with 2DG” value (HCT116 cells) was “substantially reduced”.
In the case of `COc1cc(OC)c2c(c1)O[C@@]1(c3ccc(Br)cc3)[C@H](c3ccccc3)C[C@@H](O)[C@@]21O` [FL3, (1R,3S,3aR,8bS)-3a-(4-Bromophenyl)-6,8-dimethoxy-3-phenyl-2,3,3a,8b-tetrahydro-1H-cyclopenta[b]benzofuran-1,8b-diol], the “change of IC50 … with 2DG” value (HT29 cells) is reported as “substantially reduced”, the “change of IC50 of the flavagline in the presence of 2DG” value (normal human PBMCs) is reported as “increased” and the “change of IC50 … with 2DG” value (HCT116 cells) is reported as “substantially reduced”.
With `OC[C@H]1OC(O)C[C@@H](O)[C@@H]1O` (stereo partly drawn) [2DG, (4R,5S,6R)-6-(hydroxymethyl)oxane-2,4,5-triol] the “cell lines with significant response (reduction of viability to less than 80% of the untreated cells)” value (tumor cell lines) was 9 out of 15, the viability at 1000 µM (NCH89; 2DG 1 mM alone) was 83.7% and the viability at 1000 µM (GL261; 2DG 1 mM alone) was 63.8%. The viability at 1000 µM (H146; NCI-H146, 2DG 1 mM alone) was 90.5%, the viability at 1000 µM (NCH82; 2DG 1 mM alone) was 68.3% and the viability at 1000 µM (C3; 2DG 1 mM alone) was 103%. It also gave a viability at 1000 µM (RKO; 2DG 1 mM alone) of 118%, a viability at 1000 µM (SW480; 2DG 1 mM alone) of 70.8% and a viability at 1000 µM (HCT116; HCT-116, 2DG 1 mM alone) of 82%. For the same compound, the viability at 1000 µM (SMA560; SMA-560, 2DG 1 mM alone) was 102%, the viability at 1000 µM (LNT229; 2DG 1 mM alone) was 113% and the viability at 1000 µM (HT29; HT-29, 2DG 1 mM alone) was 87.5%. It also gave a viability at 1000 µM (K073; 2DG 1 mM alone) of 89.6%, a viability at 1000 µM (U373; 2DG 1 mM alone) of 95.6% and a viability at 4000 µM (U138MG cells; U136MG cells, read-out: cell viability compared to the untreated control) of 46%. It also gave a cytotoxicity at 4000 µM (U138MG cells; U138MG cells, read-out: reduction of cell viability compared to the untreated control) of 54% and a viability at 48 h, 1 mM (in vitro) of 81.7%.
